{
  "source": "patent US8563254B2",
  "about": "“Biomarkers of tumor pharmacodynamic response” (Novartis AG, priority 2009, dated 2013)",
  "key": {"A375 cells": {"tested_on": "A375 cells", "test": "Quantitative RT-PCR of IL-8 mRNA, A375", "format": "cell-based, human", "conditions": "A375, 0.3 μM, 16 hr", "procedure": "(§1) Total cellular RNA was extracted from the GTL-16 and A375 cell lines using RNeasy mini kit (Qiagen, Inc., Valencia, Calif., USA). Total RNA quantitation was carried out using a RiboGreen assay (Invitrogen Corporation, Carlsbad, Calif., USA). 1 μg of total RNA was reverse transcribed using AMV reverse transcriptase (Reverse Transcription Kit, Promega U.S., Madison, Wis., USA). A 20 μl reaction cocktail was prepared as follows; 1 μg total RNA in 10 μl of RNase, DNase-free H2O, 4 μl of 25 mM MgCl2, 2 μl of 10× reverse transcriptase buffer, 2 μl of 10 mM dNTP's, 1 μl of 500 μg ml^−1 random hexamers, 1.5 μl of 10 μl ml^−1, and 40 U μl^−1 0.5 μl of recombinant RNase Inhibitor. Real time PCR was performed using a 7900HT fast real-time PCR system (Applied Biosystems, Foster City, Calif., USA) using the Power SYBR Green PCR master mix (Applied Biosystems). The primers for IL-8 and GAPDH were: IL-8 sense: 5′-[…]-3′ (SEQ ID NO:3) and IL-8 antisense:\n(§2) 5′-[…]-3′ (SEQ ID NO:4); and GAPDH sense:\n(§3) 5′-[…]-3′ (SEQ ID NO:5), and GAPDH antisense;\n(§4) 5′-[…]-3′. (SEQ ID NO:6) The amplification process involved an initial 5 min denaturing step at 95° C. This was followed by annealing reactions for both IL-8 and GAPDH, of 45 s at 95° C. with 230 s at 68° C. for 34 cycles and 1 min at 95° C. with 1 min at 60° C. and 1 min 72° C. for 30 cycles, respectively. The final extension was 10 min at 72° C. […]"}, "GTL-16 cells [1]": {"tested_on": "GTL-16 cells", "test": "Quantitative RT-PCR of IL-8 mRNA, GTL-16", "format": "cell-based, human", "conditions": "GTL-16, 0.3 μM, 16 hr, treated versus untreated", "procedure": "as §1, §2, §3, §4"}, "[2]": {"tested_on": "GTL-16 tumor-bearing mice", "test": "Serum IL-8 / mouse KC in GTL-16 mouse xenograft model", "format": "in vivo", "procedure": "The in vivo study was carried out in strict accordance with Swiss law for animal protection and was approved by the Swiss Cantonal Veterinary Office of Basel-Stadt. GTL-16 (4×10^6) and A375 cells (5×10^6) were inoculated subcutaneously in the right flank in 200 μl Hanks' balanced salt solution (HBSS) or PBS, respectively. Invasive procedures were performed under Forene anesthesia. All experiments were performed in female Harlan HsdNpa: Athymic Nude-nu mice (Laboratory Animal Services, Novartis Pharma AG, Basel). The animals were kept under optimized hygienic conditions with 12 hr dark, 12 hr light conditions. The animals were fed food and water ad libitum. A single 75 mg/kg and 50 mg/kg dose of Hsp90 inhibitor, NVP-AUY922 was administered to the GTL-16 and A375 tumor-bearing mice, when tumors had reached a mean volume of 200 mm^3-500 mm^3 in size. Mice in the control group were injected with the vehicle (D5W). Serum was isolated and tumors dissected over the time course 0-168 hr. Tumors were cut in two halves. One half was paraffin embedded and the other snap frozen, and stored at −80° C.\nHuman IL-8 levels in cell culture supernatants treated with NVP-AUY922 were initially assessed as part of a multiplexed bead-based cytokine panel (hu 27-plex panel I, Bio-rad Laboratories, Hercules, Calif., USA) with a BioPlex Suspension Array System (Bio-rad). Human IL-8 and mouse KC levels in serum derived from GTL-16 and A375 tumor-bearing mice treated with NVP-AUY922 were measured by single-plex cytokine bead-based assay (Milliplex, Millipore, Billerica, Mass., USA). The BioPlex system uses a liquid suspension array of beads. The beads align in a single file through a flow cell to the detector, where a red classification laser at a wavelength of 635 nm and a green reporter laser at a wavelength of 532 nm are used to identify each bead's spectral address and associated reporter signal, respectively."}, "GTL-16 cells [3]": {"tested_on": "GTL-16 cells", "test": "Western blot of total protein lysates, GTL-16", "format": "cell-based, human", "conditions": "GTL-16, 0.3 μM, 16 hr and 24 hr", "procedure": "Total protein lysates were prepared from the GTL-16 and A375 cells with RIPA lysis buffer (Upstate, Millipore Corporation, Charlottesville, Va., USA). Cells were washed with PBS and 500 ul of ice-cold RIPA buffer, containing protease inhibitor cocktail tablet (Roche Diagnostic GmbH, Mannheim, Germany) and phosphatase inhibitors (Sigma-Aldrich, Inc., St. Louis, Mo., USA), was added to each plate on ice. After 15 min the cells were scrapped from the plate surface and spun at 16000 RPM for 10 min at 4° C. The supernatant was collected and frozen at −80° C. Nuclear protein fractions were prepared by the NE-PER nuclear and cytoplasmic extraction kit (Pierce Biotechnology, Rockford, Ill., USA). Proteins were quantified by bicinchoninic acid assay (Pierce Biotechnology, Rockford, Ill., USA) for Western blotting. Primary antibodies specific for NFκB p65, cREL, p-ERK1/2, p-c-jun, ERK1 and Jun were purchased from Santa Cruz Biotechnology (Santa Cruz Biotechnology, Inc., Santa Cruz, Calif., USA) with the exception of Hsp70 and TBP (nuclear loading control), which were obtained from StressGen (StressGen, Assay Designs, Inc., Aim Arbor, Mich., USA) and Abcam (Abcam Inc., Cambridge, Mass., USA), respectively. 4-12% Bis-Tris SDS-PAGE, denaturing, non-reducing gels were loaded with 30 μg of total protein, a SeeBlue2Plus pre-stained protein standard and MES SDS running buffer were utilized for the electrophoretic separation in a XCell SureLock™ Mini-Cell (Invitrogen Corporation, Inc., Carlsbad, Calif., USA). An iBlot™ gel transfer PVDF stack with iBlot™ gel transfer system (Invitrogen) was used. An Odyssey Infrared Imaging System was used to detect the immunocomplex (Li-COR Biotechnologies, Inc., Lincoln, Nebr., USA). Li-COR blocking buffer was used to limit cross-reactivity. Membranes were incubated at 4° C. overnight in the primary antibody diluted in blocking buffer, followed by 1 hr room temperature incubation with a secondary IgG antibody (Li-COR IR dye, Li-COR)."}},
  "data": [
    {"compound": "CCNC(=O)c1noc(-c2cc(C(C)C)c(O)cc2O)c1-c1ccc(CN2CCOCC2)cc1", "note": "[NVP-AUY922, 5-(2,4-Dihydroxy-5-isopropyl-phenyl)-4-(4-morhpolin-4-ylmethyl-phenyl)-isoxazole-3-carboxylic acid ethylamide]", "values": [
      {"measurement": "IL-8 mRNA levels lower in treated versus untreated cells", "setting": "A375 cells", "result": 95, "unit": "%"},
      {"measurement": "decrease in IL-8 mRNA expression", "setting": "GTL-16 cells [1]", "result": 85, "unit": "%"},
      {"measurement": "murine IL-8 levels, measured indirectly as mu KC", "setting": "[2]; serum", "result": "unchanged"},
      {"measurement": "earliest time of significant decrease in serum IL-8", "setting": "[2]; single 75 mg/kg dose", "result": 6, "unit": "h"},
      {"measurement": "time by which serum IL-8 recovers to pre-treatment levels", "setting": "[2]; single 75 mg/kg dose", "result": "≤ 72", "unit": "h"},
      {"measurement": "maximum decline of serum IL-8 levels", "setting": "[2]; single 75 mg/kg dose, 12 hr post-treatment", "result": "approximately 70%"},
      {"measurement": "Hsp70 induction", "setting": "GTL-16 cells [3]", "result": "induction was observed"},
      {"measurement": "levels of phospho-ERK1/2 and phospho-c-Jun", "setting": "GTL-16 cells [3]", "result": "significantly diminished"},
      {"measurement": "total ERK and c-Jun levels", "setting": "GTL-16 cells [3]", "result": "unaffected"},
      {"measurement": "total cellular levels of NFκB p65 and c-REL", "setting": "GTL-16 cells [3]", "result": "essentially unchanged"}
    ]}
  ]
}
